From patent US5167949A, “4(3H)-pteridinones, preparation processes and drugs containing them” (Lipha, Lyonnaise Industrielle Pharmaceutique, priority 1989, dated 1992) come the findings set out here.

Like-named read-outs stand apart in the source and are kept apart here.

The nature of one series: in vivo. To be noted: read-out: median lethal dose. Here is the method: By way of illustration, for the compound described in Example 1, the median lethal doses determined orally on rats and on mice are above 2,000 mg/kg, and the median lethal doses determined intraperitoneally and intravenously on mice are above 1,600 mg/kg.
Another series relates to PAF-acether. Kind of series: bronchospasm induced in anaesthetized guinea pigs by PAF-acether. To be noted: Cavia porcellus, intravenous, PAF-acether 10 ng/kg/IV. In kind it is in vivo. The text has this:
The compounds described are distinguished, in addition, from known products by their long duration of action and by a capacity for antagonizing the effects of PAF-acether, especially its bronchoconstrictor effects.

Series [1] relates to passive cutaneous anaphylaxis. Kind of series: passive cutaneous anaphylaxis (PCA) test. In kind it is in vivo. To be noted: Rattus norvegicus, rats, dose decreasing by 50% the skin area occupied by the dye. Here is the method: The anti-allergic activity was measured in rats by the passive cutaneous anaphylaxis or PCA test described by I. Mota, Life Sciences 1963, 7, 465 and Z. Ovary et al., Proceedings of Society of Experimental Biology and Medicine 1952, 81, 584.
In this test, the skin of rats is sensitized by 4 intradermal injections of a homologous anti-ovalbumin serum diluted 15-fold. On the day following sensitization, the animals receive 1 ml/kg of a 2.5% saline solution of Evans blue and 1 ml/kg of a 2.5% saline solution of ovalbumin simultaneously by intravenous injection. The test compounds are administered before the antigen, the time interval being 5 min by intraperitoneal injection and 10 min by the oral route. Thirty minutes after injection of the ovalbumin/dye mixture, the animals are sacrificed and the intensity of the allergic response is determined by measuring the area of skin coloration. The protection provided by the products of the invention is expressed as an ED50 (dose decreasing by 50% the skin area occupied by the dye). Four rats are used for each dose of product.

Where [2] appears, read: ip, intraperitoneal, 5 min before antigen.

The ED50 is the dose at which the effect has come halfway, by size or by number of responders. With `CCOCc1nc2nccnc2c(=O)[nH]1` [Example 1, 2-Ethoxymethyl-4(3H)-pteridinone], the LD50 in “in vivo” (mouse, ip, mice, intraperitoneal) is above 1600 mg/kg; in the series “in vivo” (mouse, mice, intravenous) it was above 1600 mg/kg; in the series “in vivo” (mouse, mice, oral), above 2000 mg/kg; in “in vivo” (rat, rats, oral), above 2000 mg/kg. The ED50 in the series with PAF-acether turned out to be 0.068 mg/kg; in series [1] (setting [2]), 7 mg/kg; in series [1] (oral, 10 min before antigen), 24 mg/kg.
In the case of `COCc1nc2nccnc2c(=O)[nH]1` [Example 3, 2-Methoxymethyl-4(3H)-pteridinone], the ED50 was 14 mg/kg in series [1] (setting [2]) and 33 mg/kg in series [1] (oral, 10 min before antigen).
Consider `CCCOCc1nc2nccnc2c(=O)[nH]1` [Example 4, 2-Propoxymethyl-4(3H)-pteridinone], for which the ED50 is 9 mg/kg in series [1] (setting [2]) and 25 mg/kg in series [1] (oral, 10 min before antigen).
The compound `CCOCc1nc2nc(O)cnc2c(=O)[nH]1` [Example 7, 2-Ethoxymethyl-7-hydroxy-4(3H)-pteridinone] came in with an ED50 in series [1] (setting [2]) of 21 mg/kg.
On the same count and under the same terms, the value for `O=c1[nH]c(COc2ccccc2)nc2nccnc12` [Example 9, 2-Phenoxymethyl-4(3H)-pteridinone] was 39 mg/kg.
As for `O=c1[nH]c(COCc2ccccc2)nc2nccnc12` [Example 11, 2-Benzyloxymethyl-4(3H)-pteridinone], the ED50 in series [1] (setting [2]) amounted to 10 mg/kg; in series [1] (oral, 10 min before antigen) it was 48 mg/kg.
The compound `COCOCc1nc2nccnc2c(=O)[nH]1` [Example 12, 2-Methoxymethoxymethyl-4(3H)-pteridinone] yielded an ED50 in series [1] (setting [2]) of 18 mg/kg.
In the case of `CC(C)OCc1nc2nccnc2c(=O)[nH]1` [Example 13, 2-Isopropoxymethyl-4(3H)-pteridinone], the 50% effective dose (ED50) in series [1] (setting [2]) amounted to 14 mg/kg.
